Test results as given in patent US20120010266A1, “TBC1D7 AS TUMOR MARKER AND THERAPEUTIC TARGET FOR CANCER” (Oncotherapy Science Inc.,, priority 2008, published 2012).
One block for each molecule: values may come before it.

How the values were obtained:
TSC1 = assay: si-TSC1 treatment of LC319 cells: TSC1 and TBC1D7 transcript and protein levels (semiquantitative RT-PCR, western blot); format: cell-based, human; details: for TBC1D7 protein level: LC319 cells treated with siRNA against TSC1, western blot
Method: Total RNA was extracted from cultured cells and clinical tissues using Trizol reagent (Life Technologies, Inc.) according to the manufacturer's protocol. Extracted RNAs were treated with DNase I (Nippon Gene) and reversely-transcribed using oligo (dT) primer and SuperScript II reverse transcriptase (Invitrogen). Semiquantitative RT-PCR experiments were carried out with the following synthesized TBC1D7-specific primers or with beta-actin (ACTB)-specific primers as an internal control: TBC1D7, 5′-[…]-3′ (SEQ ID NO.: 5) or 5′-[…]-3′ (SEQ ID NO.:15) and 5′-[…]-3′ (SEQ ID NO.: 6); TSC1, 5′-[…]-3′ (SEQ ID NO.:16) and 5′-[…]-3′ (SEQ ID NO.:17); ACTB, 5′-[…]-3′ (SEQ ID NO.: 7) and 5′-[…]-3′ (SEQ ID NO.: 8). PCR reactions were optimized for the number of cycles to ensure product intensity within the logarithmic phase of amplification.
Cells were lysed in lysis buffer; 50 mM Tris-HCl (pH 8.0), 150 mM NaCl, 0.5% NP-40, 0.5% deoxycholate-Na, 0.1% SDS, plus protease inhibitor (Protease Inhibitor Cocktail Set III; Calbiochem). It was used an ECL western-blotting analysis system (GE Healthcare Bio-sciences), as previously described (Takahashi K. et al. Cancer Res 2006; 66:9408-19).
Small interfering RNA (siRNA) duplexes (100 nM) were transfected into a NSCLC cell line, A549 and LC319, using 24 microL of Lipofectamine 2000 (Invitrogen) following the manufacturer's protocol. The transfected cells were cultured for 7 days, and the number of colonies was counted by Giemsa staining, and viability of cells was evaluated by 3-(4,5-dimethylthiazol-2-yl)-2,5-diphenyltetrazolium bromide (MTT) assay (cell counting kit-8 solution; Dojindo Laboratories), at 7 days after transfection. To confirm suppression of TBC1D7 and TSC1 expression, western blotting using antibodies to TBC1D7 and TSC1 as well as semiquantitative RT-PCR with synthesized primers specific for TBC1D7 and TSC1 were carried out as described above. SiRNA sequences against human TBC1D7 and TSC1 were as follows, si-TBC1D7#3: GAACAGUGCAGAGAAGAUA (SEQ ID NO.:18), si-TBC1D7#4: GAUAAAGUUGUGAGUGGAU (SEQ ID NO.:19), and si-TSC1: CGACACGGCUGAUAACUGA (SEQ ID NO.:20). The present inventors also designed siRNA oligonucleotides against control-1 (LUC: luciferase gene from Photinus pyralis), 5′-CGUACGCGGAAUACUUCGA-3′ (SEQ ID NO.:21) and control-2 (EGFP: enhanced green fluorescent protein (GFP) gene, a mutant of Aequorea victoria GFP), 5′-GAAGCAGCACGACUUCUUC-3′ (SEQ ID NO.:22).

[1] = system: p-rpS6 (Ser235/236), downstream target of mTORC1; assay: Effect of TSC1 knockdown on mTORC1 pathway in LC319 cells (phosphorylation of rpS6); format: cell-based, human; details: LC319 cells treated with siRNA against TSC1
[2] = biological target: T1, flag-TBC1D7 (exogenous TBC1D7 transiently expressed in COS-7 cells) (human, UniProt Q9P0N9 1-293); assay: co-immunoprecipitation from COS-7 cells expressing flag-TBC1D7 and Myc-RAB17 (FIG. 4B)
T1 construct: The only full-length flag vector described is pCAGGSn3FC, with 3xflag at the C-terminus, so it may be the same construct as m2; The order of the parts is therefore uncertain
T1 sequence: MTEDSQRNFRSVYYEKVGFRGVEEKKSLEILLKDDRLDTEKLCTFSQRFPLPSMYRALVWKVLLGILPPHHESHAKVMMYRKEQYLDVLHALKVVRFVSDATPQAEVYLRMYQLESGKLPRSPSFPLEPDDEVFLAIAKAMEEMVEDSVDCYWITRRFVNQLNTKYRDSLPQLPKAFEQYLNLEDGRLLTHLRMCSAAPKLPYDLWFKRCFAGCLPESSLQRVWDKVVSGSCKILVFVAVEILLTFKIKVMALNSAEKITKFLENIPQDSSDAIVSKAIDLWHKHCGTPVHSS
Method: FIG. 4 depicts interaction of TBC1D7 with binding proteins. A, Interaction of exogenous TBC1D7 with endogenous 14-3-3 zeta protein in COS-7 cells. Immunoprecipitations were carried out using anti-flag M2 agarose and extracts from COS-7 cells transiently expressing flag-TBC1D7. Immunoprecipitates were subjected to western-blot analysis to detect endogenous 14-3-3. B, Interaction of exogenous TBC1D7 with exogenous RAB 17 protein in COS-7 cells. Immunoprecipitations were carried out using anti-flag M2 agarose and extracts from COS-7 cells transiently expressing flag-TBC1D7 and/or Myc-RAB17. Immunoprecipitates were subjected to western-blot analysis to detect exogenous RAB 17. IB, immunoblotting; IP, immunoprecipitation. C, Expression of TSC1 and TBC1D7 in lung cancer cells. […] Left panels, The levels of TSC1 and TBC1D7 transcripts and proteins, detected by semiquantitative RT-PCR analysis and western-blot analysis in LC319 cells transfected with si-TSC1. Right panels, The levels of TSC1 and TBC1D7 transcripts and proteins, detected by semiquantitative RT-PCR analysis and western-blot analysis in LC319 cells transfected with TSC1 expression vector. F, The levels of endogenous TSC1 and TBC1D7 proteins, detected by western blot analysis in LC319 cells that were initially transfected with si-TSC1, and were subsequently transfected with TSC1 expression vector 24 hours after the siRNA transfection. […]

Molecule: si-TSC1: siRNA sequence against human TSC1: CGACACGGCUGAUAACUGA (SEQ ID NO: 20) (listed as RNA, chemistry not given here)
transcription level of TBC1D7 (TSC1; LC319 cells treated with si-TSC1, semiquantitative RT-PCR): unchanged
TBC1D7 protein level (TSC1): decreased
TBC1D7 protein level (TSC1; listed as siRNA against TSC1): Reduced levels
expression of the endogenous TSC1 (TSC1; LC319 cells, in comparison to control siRNA (si-EGFP)): suppressed
levels of p-rpS6 (Ser235/236) protein [1]: not changed

binding result [2]: binds
B1: Myc-RAB17 (pcDNA3.1 Myc-His RAB17), exogenous RAB17 expressed in COS-7 cells (other)
chain: MAQAHRTPQPRAAPSQPRVFKLVLLGSGSVGKSSLALRYVKNDFKSILPTVGCAFFTKVVDVGATSLKLEIWDTAGQEKYHSVCHLYFRGANAALLVYDITRKDSFLKAQQWLKDLEEELHPGEVLVMLVGNKTDLSQEREVTFQEGKEFADSQKLLFMETSAKLNHQVSEVFNTVAQELLQRSDEEGQALRGDAAVALNKGPARQAKCCAH
notes: not shown: Myc-His tag of the pcDNA3.1 Myc-His vector
